These results are taken from ChEMBL document CHEMBL1614629, “Extrapolation of human pharmacokinetic parameters from rat, dog, and monkey data: Molecular properties associated with extrapolative success or failure” (J Pharm Sci, 2005).

The nature of data set [1]: Volume of distribution at steady state in monkey after iv administration. The settings on record: macaca, in vivo, read-out: Vdss. The format is ADME, organism-based.
Data set [2] can be described thus: Clearance in monkey after iv administration. Type of data set: ADME, organism-based. The settings on record: macaca, in vivo.
Data set [3] in a line: Volume of distribution at steady state in human after iv administration. Conditions: in vivo, read-out: Vdss. The format is ADME, organism-based.
A short description of data set [4]: Clearance in human after iv administration. Type of data set: ADME, organism-based. The settings on record: in vivo.
Data set [5] in a line: Clearance in rat after iv administration. The settings on record: in vivo. Type of data set: ADME, organism-based.
A short description of data set [6]: Clearance in dog after iv administration. Type of data set: ADME, organism-based, Canis lupus familiaris. Conditions: in vivo.
The nature of data set [7]: Volume of distribution at steady state in rat after iv administration. The format is ADME, organism-based. The settings on record: in vivo.
Data set [8] is described as follows: Volume of distribution at steady state in dog after iv administration. Conditions: in vivo, read-out: Vdss. Type of data set: ADME, organism-based, Canis lupus familiaris.

Broadly, the clearance is a measure of how efficiently the substance is removed, as volume per time. Usually Vdss stands for a proportionality between amount in the body and measured concentration, not a real space.

For the compound `Nc1nc(/C(=N/O)C(=O)N[C@@H]2C(=O)N3C(C(=O)O)=C(/C=C4\CCN(CC(F)(F)F)C4=O)CS[C@H]23)cs1` [RO 25-6833], the Vd in data set [1] stood at 0.12 L/kg; in data set [3], 0.12 L/kg; in data set [8] it was 0.24 L/kg. Also, the clearance came out at 0.0468 L/h/kg in data set [2], 0.0228 L/h/kg in data set [4], 0.057 L/h/kg in data set [5] and 0.162 L/h/kg in data set [6]. In data set [7], the Vdss came to 0.16 L/kg.
`CC[C@H]1OC(=O)[C@H](C)[C@@H](O[C@H]2C[C@@](C)(OC)[C@@H](O)[C@H](C)O2)[C@H](C)[C@@H](O[C@@H]2O[C@H](C)C[C@H](N(C)C)[C@H]2O)[C@](C)(O)C[C@@H](C)C(=O)[C@H](C)[C@@H](O)[C@]1(C)O` [ERYTHROMYCIN]: the Vd in data set [1] is 0.93 L/kg; in data set [3], 0.89 L/kg; in data set [8] it was 2.7 L/kg. The clearance is 0.84 L/h/kg in data set [2], 0.42 L/h/kg in data set [4], 4.38 L/h/kg in data set [5] and 1.26 L/h/kg in data set [6]. Also, in data set [7], the Vdss was found to be 9.3 L/kg.
For the compound `CO[C@@]1(NC(=O)C2SC(=C(C(N)=O)C(=O)O)S2)C(=O)N2C(C(=O)O)=C(CSc3nnnn3C)CS[C@@H]21` (stereo partly specified) [CEFOTETAN], the Vd is 0.17 L/kg in data set [1], 0.13 L/kg in data set [3] and 0.25 L/kg in data set [8]. The clearance worked out at 0.102 L/h/kg in data set [2], 0.03 L/h/kg in data set [4], 0.78 L/h/kg in data set [5] and 0.24 L/h/kg in data set [6]. This compound also gave a Vdss in data set [7] of 0.25 L/kg.
Consider `CN1C(=O)OC(C)(C)C1=O` [TRIMETHADIONE], for which the Vd in data set [1] amounted to 0.66 L/kg; in data set [3] it was 0.61 L/kg; in data set [8], 0.63 L/kg. In addition, the clearance in data set [2] is 0.096 L/h/kg; in data set [4] it was 0.042 L/h/kg; in data set [5] it was 0.342 L/h/kg; in data set [6] it was 0.174 L/h/kg. This compound showed a Vdss in data set [7] of 0.66 L/kg.
As for `CN(C)CCCC1(c2ccc(F)cc2)OCc2cc(C#N)ccc21` (stereo unspecified) [CITALOPRAM], the Vd came to 10 L/kg in data set [1], 14 L/kg in data set [3] and 10 L/kg in data set [8]. In addition, the clearance in data set [2] turned out to be 2.34 L/h/kg; in data set [4], 0.3 L/h/kg; in data set [5] it was 4.92 L/h/kg; in data set [6], 0.84 L/h/kg. In data set [7], this compound had a Vdss of 21 L/kg.
With `CN1CCN(c2c(F)cc3c(=O)c(C(=O)O)cn(CCF)c3c2F)CC1` [FLEROXACIN], the values for the Vd in data set [1], in data set [3] and in data set [8] were 1.2 L/kg, 1.5 L/kg and 1.3 L/kg, respectively. Besides, the clearance in data set [2] was 0.24 L/h/kg; in data set [4] it was 0.144 L/h/kg; in data set [5], 0.342 L/h/kg; in data set [6], 0.096 L/h/kg. The compound further returned a Vdss in data set [7] of 1.3 L/kg.
Turning to `C[C@@H](O)[C@H]1C(=O)N2C(C(=O)O)=C(COC(N)=O)S[C@H]12`, the Vd was 0.15 L/kg in data set [1], 0.25 L/kg in data set [3] and 0.23 L/kg in data set [8]. In addition, the clearance in data set [2] was 0.282 L/h/kg; in data set [4], 0.432 L/h/kg; in data set [5] it was 0.96 L/h/kg; in data set [6] it was 0.462 L/h/kg. The compound further came in with a Vdss in data set [7] of 0.05 L/kg.
With `O=C1NC(=O)C(c2ccccc2)(c2ccccc2)N1` [PHENYTOIN], the Vd in data set [1] was 7.8 L/kg; in data set [3] it was 1.4 L/kg; in data set [8], 1 L/kg. Further, the clearance stood at 0.474 L/h/kg in data set [2], 0.0342 L/h/kg in data set [4], 0.444 L/h/kg in data set [5] and 0.168 L/h/kg in data set [6]. Moreover, in data set [7], the Vdss was determined as 0.64 L/kg.
For the compound `O=c1[nH]cnc2c1ncn2[C@H]1CC[C@@H](CO)O1` [DIDANOSINE], the Vd in data set [1] came to 0.92 L/kg; in data set [3] it was 0.81 L/kg; in data set [8], 0.95 L/kg. Further, the clearance was 0.72 L/h/kg in data set [2], 0.84 L/h/kg in data set [4], 3.96 L/h/kg in data set [5] and 1.38 L/h/kg in data set [6]. The same compound yielded a Vdss in data set [7] of 0.99 L/kg.
`CO[C@@]1(NC(=O)CSCC#N)C(=O)N2C(C(=O)O)=C(CSc3nnnn3C)CS[C@@H]21` [CEFMETAZOLE]: the figures for the Vd in data set [1], in data set [3] and in data set [8] were 0.14 L/kg, 0.14 L/kg and 0.24 L/kg, respectively. Also, the clearance in data set [2] was found to be 0.228 L/h/kg; in data set [4], 0.108 L/h/kg; in data set [5], 2.4 L/h/kg; in data set [6], 0.318 L/h/kg. The compound further gave a Vdss in data set [7] of 0.49 L/kg.
As to `COc1cccc2c1C(=O)c1c(O)c3c(c(O)c1C2=O)C[C@@](O)(C(=O)CO)C[C@@H]3O[C@H]1C[C@H](N)[C@H](O)[C@H](C)O1` [DOXORUBICIN], the Vd in data set [1] was 24 L/kg; in data set [3], 25 L/kg; in data set [8], 44 L/kg. The clearance in data set [2] came to 1.68 L/h/kg; in data set [4], 1.02 L/h/kg; in data set [5], 2.04 L/h/kg; in data set [6], 1.02 L/h/kg. The compound also returned a Vdss in data set [7] of 25 L/kg.
In the case of `NC1(C(=O)O)CC1` [1-Aminocyclopropane carboxylic acid], the figures for the Vd in data set [1], in data set [3] and in data set [8] were 0.72 L/kg, 0.73 L/kg and 0.7 L/kg, respectively. Also, the clearance in data set [2] amounted to 0.186 L/h/kg; in data set [4] it was 0.09 L/h/kg; in data set [5], 0.192 L/h/kg; in data set [6], 0.024 L/h/kg. In data set [7], the Vdss is 0.64 L/kg.
Consider `CC[C@]1(O)C[C@H]2CN(CCc3c([nH]c4ccccc34)[C@@](C(=O)OC)(c3cc4c(cc3OC)N(C=O)[C@H]3[C@@](O)(C(=O)OC)[C@H](OC(C)=O)[C@]5(CC)C=CCN6CC[C@]43[C@@H]65)C2)C1` [VINCRISTINE], for which the Vd in data set [1] amounted to 1.3 L/kg; in data set [3] it was 8 L/kg; in data set [8] it was 3.1 L/kg. Moreover, the clearance in data set [2] came to 0.288 L/h/kg; in data set [4], 0.108 L/h/kg; in data set [5], 0.12 L/h/kg; in data set [6], 0.588 L/h/kg. Besides, in data set [7], the Vdss was 0.41 L/kg.
As for `C#CCCCC(=O)c1cc(C(C)(C)C)c(O)c(C(C)(C)C)c1` [TEBUFELONE], the Vd in data set [1] was found to be 53 L/kg; in data set [3], 30 L/kg; in data set [8] it was 81 L/kg. Further, the clearance in data set [2] stood at 1.02 L/h/kg; in data set [4], 0.594 L/h/kg; in data set [5], 2.52 L/h/kg; in data set [6], 1.92 L/h/kg. Also, in data set [7], the Vdss was 10 L/kg.
Take `COc1ccc2c(c1)c(CC(=O)O)c(C)n2C(=O)c1ccc(Cl)cc1` [INDOMETHACIN]: the Vd in data set [1] stood at 1.8 L/kg; in data set [3], 0.26 L/kg; in data set [8] it was 7.4 L/kg. Besides, the clearance in data set [2] came out at 0.78 L/h/kg; in data set [4], 0.12 L/h/kg; in data set [5] it was 0.0258 L/h/kg; in data set [6], 0.00012 L/h/kg. In data set [7], the Vdss came out at 0.1 L/kg.
As for `Cc1c(C)c2c(c(C)c1O)CCC(C)(COc1ccc(CC3SC(=O)NC3=O)cc1)O2` (stereo unspecified) [TROGLITAZONE], the figures for the Vd in data set [1], in data set [3] and in data set [8] were 0.71 L/kg, 0.71 L/kg and 0.77 L/kg, respectively. Moreover, the clearance in data set [2] came to 0.498 L/h/kg; in data set [4] it was 0.21 L/h/kg; in data set [5] it was 1.32 L/h/kg; in data set [6] it was 0.396 L/h/kg. The same compound had a Vdss in data set [7] of 1 L/kg.
Consider `O=C(O)C[C@H](NC(=O)CP(=O)(O)O)C(=O)O` [PALA], for which the Vd in data set [1] is 0.35 L/kg; in data set [3], 0.35 L/kg; in data set [8], 0.6 L/kg. In addition, the clearance in data set [2] is 0.222 L/h/kg; in data set [4] it was 0.048 L/h/kg; in data set [5], 3.18 L/h/kg; in data set [6], 0.42 L/h/kg. In addition, in data set [7], the Vdss was 4.5 L/kg.
